According to US9169241B2, “Quinolinyloxyphenylsulfonamides” (Max-Planck-Gesellschaft Zur Forderung der Wissenschaften …, priority 2009, dated 2015):
Read-outs that look alike come from different tables or passages of the source.

Experiments:
Type in all cases: cell-based
Hs578T [1] = assay: Apoptosis assay (Cellomics, nucleus condensation); details: Homo sapiens, Hs-578T, Table III, read-out: Apoptosis induction in Hs578T
From the text: (§1) The Cellomics BioApplication (Thermo Fischer Cellomics Products, Pittsburgh, Pa.) is an automated image analysis algorithm that provides detailed analysis of phenotypes related to apoptosis. As one of the most prominent characteristics of apoptotics cell a nucleus condensation takes place. This can be measured fluorescence signal intensity using a CCD camera on fully automated microscope system. The Cellomics system is able to quantify the fluorescence intensity per single nucleus and calculates the variation of signal intensity in each cell population. […] Additionally the number of detected cell decreases normally in apoptotic cell populations. In detail 5000 cell per 96 well were labeled with DNA intercalating dye (Hoechst 33342, Sigma, Steinheim, Germany) to visualize the nucleus in a fluorescence microscope under live conditions. The apoptosis assay was performed 24 h and 48 h after addition of compound at concentrations 12.5 μM, 6.25 μM, 3.125 μM, 1.56 μM, 0.78 μM, 0.39 μM as well as DMSO control for 48 h.

U138 = assay: Apoptosis assay (Cellomics, nucleus condensation); details: Table III, read-out: Apoptosis induction in U138
From the text: as §1

SF763 = assay: Apoptosis assay (Cellomics, nucleus condensation); details: Table III, read-out: Apoptosis induction in SF763
From the text: as §1

C8161 = assay: Apoptosis assay (Cellomics, nucleus condensation); details: Homo sapiens, Table III, read-out: Apoptosis induction in C8161
From the text: as §1

U118 = assay: Apoptosis assay (Cellomics, nucleus condensation); details: Table III, read-out: Apoptosis induction in U118
From the text: as §1

SF126 = assay: Apoptosis assay (Cellomics, nucleus condensation); details: Homo sapiens, SF-126, Table III, read-out: Apoptosis induction in SF126
From the text: as §1

cells = assay: Boyden chamber migration assay (Table VI); details: Homo sapiens, Hs-578T, 16 h, Hs578T cells; 16 h migration
Procedure: The Boyden chamber assay is based on a chamber of two medium-filled compartments separated by a microporous membrane of 8 μM (Cell culture insert 8.0 μM pore size, BD Biosciences, Bedford, Mass.). The boyden chamber migration assays were carried out according to the supplier's instructions. In general, 20000 cells are placed in the upper compartment with medium containing 0% FCS plus 0.1% BSA and are allowed to migrate 16 h through the pores of the membrane into the lower compartment, which is filled with cell culture medium containing 10% FCS as chemotactic agents. The cells remaining in the insert were removed with a cotton swab, and the cells on the bottom of the filter were fixed and counted. (Zhang Y X, et al. AXL is a potential target for therapeutic intervention in breast cancer progression. Cancer Res. 2008; 68:1905-15).

indicated cell line = assay: Wound healing migration assay (Table IV); details: compounds at 12.5, 6.25, 3.125 μM, 48 h-72 h
Procedure: This method mimics cell migration during wound healing in vivo. The basic steps involve creating a “wound” in a cell monolayer, capturing the images at the beginning and at regular intervals during cell migration to close the wound, and comparing the images to quantify the migration rate of the cells. In detail, 150000 cell/24 well have been seeded and allowed to form a monolayer overnight. Subsequently a “wound” or “scratch” has been performed with a 1000 μl pipette tip. The STDV of wound size is normally below 10% at time point t0. The assay was stopped by fixation with 0.05% Crystal violet/20% methanol when control scratches were closed. The assay was terminated between 48 h and 72 h depending on the migration potential of the indicated cell line. The “wounds” were visualized with a Zeiss Axiovert S100 microscope (Carl Zeiss UK, Welwyn Garden City, UK). The tested compounds were used at 12.5 μM, 6.25, 3.125 μM and DMSO control. IC50 values have been calculated as 50% wound size in between t0 and t48 or t72.

viable cells in culture = assay: Cell viability assay at 10 μM (CellTiter-Glo, Table VII); details: compound 10 μM, 72 h;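 note: graded A 0-20%; B 21-40%; C 41-60%; D over 60% viable cells relative to DMSO control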
How it was run: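 Viable cell number was measured with the CellTiter-Glo Luminescent Cell Viability Assay (Promega), following the manufacturer's protocol, which quantifies ATP as a marker of metabolically active cells. In 96-well plates, 1000 cells/well in 100 μl medium were exposed to compound at 10 μM, or to DMSO control, for 72 h. Values were calculated relative to DMSO-control ATP.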

tumor cell = assay: Matrigel outgrowth assay/branching assay (Table Va)
Procedure: The Matrigel outgrowth assay is based on the ability of tumor cell to penetrate a solid gel of extracellular matrix proteins mimicking the metastasis formation in vivo. While cells with low invasive potential appear as roundish cell or cell cluster, cells with high invasive potential penetrate the Matrigel and form polymorphic structures. In detail 65 μl of Matrigel matrix (Matrigel™ Matrix, BD Biosciences, Bedford, Mass., USA) with a concentration of 3 mg/ml have been polymerized in 96 well plates for 1 h at 37° C. Subsequently 5000 cell/well were seeded into each well containing cell culture medium and indicated compound with concentrations of 3.125 μM, 1.56 μM and 0.78 μM as well as DMSO control. After 48 h, 72 h and 96 h images of cell were taken on an inverted microscope using a 5× objective (Zeiss Axiovert S100 microscope Carl Zeiss UK, Welwyn Garden City, UK). Only compound concentrations were total branching inhibition was evident were accounted as positive. Method was used as previously described, with some modifications (Thompson E W, et al. Association of increased basement membrane invasiveness with absence of estrogen receptor and expression of vimentin in human breast cancer cell lines. J Cell Physiol 1992; 150:534-44).

Hs578T [2] = assay: Matrigel outgrowth assay/branching assay; details: Homo sapiens, Hs-578T; HS578T cell line; Table Ib; read-out: Total branching inhibition in Matrigel HS578T
How it was run: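 Cells (5000/well) were seeded onto polymerized 3 mg/ml Matrigel with compound at 3.125, 1.56 or 0.78 μM, or DMSO. Imaging by inverted microscopy at 48, 72 and 96 h scored invasive branching. Only concentrations giving total branching inhibition counted as positive.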

[3] = Homo sapiens, C8161 cells, read-out: IC50 Wound healing Assay C8161
[4] = SF763 cells, read-out: IC50 Wound healing Assay SF763
[5] = Homo sapiens, HCT-116, HCT116 def, read-out: percentage (%) of viable cells HCT 116def
[6] = Homo sapiens, HCT-116, HCT116 wt, read-out: percentage (%) of viable cells HCT 116wt
[7] = Homo sapiens, HT-29, HT29, read-out: percentage (%) of viable cells HT29
[8] = Homo sapiens, NCI-H358, H358, read-out: percentage (%) of viable cells H358
[9] = Homo sapiens, NCI-H1650, H1650, read-out: percentage (%) of viable cells H1650
[10] = Homo sapiens, NCI-H1666, H1666, read-out: percentage (%) of viable cells H1666
[11] = Homo sapiens, NCI-H1975, H1975, read-out: percentage (%) of viable cells H1975
[12] = Homo sapiens, NCI-H1993, H1993, read-out: percentage (%) of viable cells H1993
[13] = Homo sapiens, A549, read-out: percentage (%) of viable cells A549
[14] = Homo sapiens, HCC827, read-out: percentage (%) of viable cells HCC827
[15] = Homo sapiens, SW480, read-out: percentage (%) of viable cells SW480
[16] = RKO, read-out: percentage (%) of viable cells RKO
[17] = Homo sapiens, C8161 cells, read-out: Total branching inhibition in Matrigel C8161
[18] = Homo sapiens, Hs-578T, Hs578T cells, read-out: Total branching inhibition in Matrigel Hs578T
[19] = U118 cells, read-out: Total branching inhibition in Matrigel U118
[20] = U138 cells, read-out: Total branching inhibition in Matrigel U138

| SMILES | IC50 (Hs578T [1]) [µM] | IC50 (U138) [µM] | IC50 (SF763) [µM] | IC50 (C8161) [µM] | IC50 (U118) [µM] | IC50 (SF126) [µM] | IC50 (cells) [µM] | IC50 (indicated cell line; [3]) [µM] | IC50 (indicated cell line; [4]) [µM] | viability at 10 µM (viable cells in culture; [5]) [%] | viability at 10 µM (viable cells in culture; [6]) [%] | viability at 10 µM (viable cells in culture; [7]) [%] | viability at 10 µM (viable cells in culture; [8]) [%] | viability at 10 µM (viable cells in culture; [9]) [%] | viability at 10 µM (viable cells in culture; [10]) [%] | viability at 10 µM (viable cells in culture; [11]) [%] | viability at 10 µM (viable cells in culture; [12]) [%] | viability at 10 µM (viable cells in culture; [13]) [%] | viability at 10 µM (viable cells in culture; [14]) [%] | viability at 10 µM (viable cells in culture; [15]) [%] | further results |
| --- | --- | --- | --- | --- | --- | --- | --- | --- | --- | --- | --- | --- | --- | --- | --- | --- | --- | --- | --- | --- | --- |
| COc1cc2c(Oc3ccc(NS(=O)(=O)c4cc(F)ccc4F)cc3F)ccnc2cc1OCC1CCCNC1 (centres unmarked) [Example 80, 2,5-Difluoro-N-{3-fluoro-4-[6-methoxy-7-(piperidin-3-ylmethoxy)-quinolin-4-yloxy]-phenyl}-benzenesulfonamide] | ≤ 12.5 | 12.5 to 50 | 12.5 to 50 | 12.5 to 50 | ≤ 12.5 | 12.5 to 50 | ≤ 5 | ≤ 12.5 | ≤ 12.5 | 21 to 40 | 21 to 40 | 41 to 60 | 0 to 20 | > 60 | 21 to 40 | 0 to 20 | 0 to 20 | > 60 | 21 to 40 | 0 to 20 | viability at 10 µM (viable cells in culture; [16]): 0 to 20%; IC50 (tumor cell; [17]): ≤ 5 µM; IC50 (tumor cell; [18]): ≤ 5 µM; IC50 (tumor cell; [19]): ≤ 5 µM; IC50 (tumor cell; [20]): 5 to 50 µM |
| O=S(=O)(Nc1ccc(Oc2ccnc3cc(OCCCCN4CCOCC4)ccc23)c(F)c1)c1cc(F)ccc1F [Example 84, 2,5-Difluoro-N-{3-fluoro-4-[7-(4-morpholin-4-yl-butoxy)-quinolin-4-yloxy]-phenyl}-benzenesulfonamide] | ≤ 12.5 | ≤ 12.5 | ≤ 12.5 | ≤ 12.5 | ≤ 12.5 | ≤ 12.5 | ≤ 5 | ≤ 12.5 | 12.5 to 50 | 0 to 20 | 0 to 20 | 0 to 20 | 0 to 20 | 0 to 20 | 41 to 60 | 21 to 40 | 0 to 20 | > 60 | > 60 | 0 to 20 | IC50 (Hs578T [2]): ≤ 10 µM; viability at 10 µM (viable cells in culture; [16]): 0 to 20%; IC50 (tumor cell; [17]): ≤ 5 µM; IC50 (tumor cell; [18]): ≤ 5 µM; IC50 (tumor cell; [19]): ≤ 5 µM; IC50 (tumor cell; [20]): ≤ 5 µM |
| CN1CCN(CCCOc2ccc3nccc(Oc4ccc(NS(=O)(=O)c5ccccc5C(F)(F)F)cc4F)c3c2)CC1 [Example 85, N-(3-Fluoro-4-{6-[3-(4-methyl-piperazin-1-yl)-propoxy]-quinolin-4-yloxy}-phenyl)-2-trifluoromethyl-benzenesulfonamide] | ≤ 12.5 | ≤ 12.5 | ≤ 12.5 | ≤ 12.5 | 12.5 to 50 | ≤ 12.5 | ≤ 5 | ≤ 12.5 | 12.5 to 50 | 21 to 40 | 0 to 20 | 21 to 40 | 21 to 40 | 21 to 40 | 41 to 60 | 21 to 40 | 0 to 20 | 41 to 60 | 0 to 20 | 0 to 20 | IC50 (Hs578T [2]): ≤ 10 µM; viability at 10 µM (viable cells in culture; [16]): 0 to 20%; IC50 (tumor cell; [17]): ≤ 5 µM; IC50 (tumor cell; [18]): ≤ 5 µM; IC50 (tumor cell; [19]): ≤ 5 µM; IC50 (tumor cell; [20]): 5 to 50 µM |
